In patent US20250374924A1, “ACTIVE MOLECULES IN THE SECRETOME OF PSEUDOMONAS PROTEGENS PBL3” (Board of Regents of the University of Nebraska, priority 2024, published 2025):
“Also recorded” adds a separate entry of the source.

Assays:
Burkholderia glumae = test: Antimicrobial assay in vitro: growth of B. glumae in KB broth (OD600 after 18 hours); details: for minimum inhibitory concentration needed for reduction of B. glumae growth in vitro: concentrations tested 1000, 100, 10 μg/mL; for growth of B. glumae (in words): concentrations ranging from 10 μg/mL to 1000 μg/mL
Description: A single colony of P. protegens PBL3 was grown in 1×M9 minimal media (Sigma Aldrich, St. Louis, MO) supplemented with filter-sterilized 56 mM Myo-inositol, 2 mM MgSO4·7H2O, and 0.2 mM CaCl2). The culture was incubated at 25° C. with constant agitation (210 rpm) for 60 hours until reaching an optical density at 600 nm (OD600) of 0.5. Bacterial culture was centrifuged at 10,000 rpm for 10 minutes. The bacterial pellet was discarded and the supernatant, containing the secreted fraction (secretome) was transferred to a new tube and filter-sterilized using a 0.22 μm filter (Fisher Scientific, Ireland) to eliminate any residual bacterial suspension.
Orfamide A, orfamide B, pyrrolnitrin, and pyoluteorin (Cayman Chemical Company, Ann Arbor, MI), and pyochelin (Santa Cruz Biotechnology, Dallas, TX), were diluted in 5% dimethyl sulfoxide (DMSO) at 1000 μg/mL and further diluted to 100 μg/mL and 10 μg/mL. Similarly, pyoverdine (Sigma-Aldrich, Saint Louis, MO) was diluted in water, whereas 2,4-DAPG (ThermoFisher Scientific, Poland) and fengycin (Sigma-Aldrich, Saint Louis, MO) were diluted in 5% ethanol at 1000 μg/mL and further diluted to 100 μg/mL and 10 μg/mL.
Burkholderia glumae grown on KB was scraped from the agar and resuspended in sterile water to a final OD600 of 0.2. One hundred microliters of B. glumae was added to 200 μL of KB broth to make a master mix. The master mix was supplemented with either water, 5% DMSO, or 5% ethanol, used as control. Alternatively, master mix was supplemented with either P. protegens PBL3 secretome or different compounds (orfamide A, orfamide B, fengycin, pyrrolnitrin, pyochelin, pyoverdine, 2,4-DAPG, or pyoluteorin), each at three concentrations of 1000 μg/mL, 100 μg/mL, and 10 μg/mL, or combination of compounds. Two compound combinations were chosen, the first combination consisted of 2,4-DAPG and pyoluteorin at final concentrations of 100 μg/mL and 10 μg/mL, respectively. The second combination consisted of 2,4-DAPG and pyoluteorin, each at concentration of 10 μg/mL. […] The growth of B. glumae was evaluated by measuring the OD600 using a spectrophotometer (Genesys 140, Thermoscientific, Madison, WI, USA). Each experiment was replicated three times.

[1] = tested on: rifampicin-resistant strain of B. glumae; test: Antimicrobial assay in planta: rice panicles pre-treated with compound, then spray-inoculated with B. glumae (BPB symptoms, bacterial populations); format: in vivo, Burkholderia glumae; details: 3 dpi; for reduction of B. glumae populations in rice panicles: pre-treated with 500 μg/mL, vs water pre-treated inoculated panicles, FIG. 4B; for BPB symptoms in rice panicles (in words): rice Kitaake panicles pre-treated with 500 μg/mL, water pre-treated, inoculated panicles exhibited the highest levels of BPB symptoms, FIG. 4A
[2] = at the three concentrations 10 μg/mL, 100 μg/mL, 1000 μg/mL
[3] = compound at 100 μg/mL, 18 hours, FIG. 2
[4] = compound at 1000 μg/mL, 18 hours, FIG. 2
[5] = at a concentration of 1000 μg/mL
[6] = other concentrations than 1000 μg/mL (100 μg/mL, 10 μg/mL), FIG. 2

Row | Molecule | effect on growth of B. glumae (in words) (Burkholderia glumae; [2]) | reduction of growth of B. glumae (Burkholderia glumae; [3]) | reduction of growth of B. glumae (Burkholderia glumae; [4]) | minimum inhibitory concentration needed for reduction of B. glumae growth in vitro (Burkholderia glumae) | reduction of B. glumae populations in rice panicles [1] | growth of B. glumae (in words) (Burkholderia glumae; FIG. 2) | reduction in B. glumae growth (Burkholderia glumae; 2,4-DAPG at 100 μg/mL alone or with pyoluteorin at 10 μg/mL, 18 hours, FIG. 7) | BPB symptoms in rice panicles (in words) [1] | effect on growth of B. glumae (in words) (Burkholderia glumae; [5]) | effect on growth of B. glumae (in words) (Burkholderia glumae; [6])
1 | pyoverdine | inhibits B. glumae | ~80% | ~80% | 100 µg/mL | No changes in B. glumae populations | – | – | – | – | –
2 | Orfamide A | – | – | – | – | – | did not reduce the growth of B. glumae | – | – | – | –
3 | fengycin | – | – | – | – | – | did not reduce the growth of B. glumae | – | – | – | –
4 | CC(=O)c1c(O)cc(O)c(C(C)=O)c1O [2,4-DAPG, 2,4-diacetylphloroglucinol] | inhibits B. glumae; also recorded: significantly reduced the growth of B. glumae | – | 93% | 100 µg/mL | 1.17 logs | – | 45% | showed reduction of symptoms | – | –
5 | O=C(c1cc(Cl)c(Cl)[nH]1)c1c(O)cccc1O [pyoluteorin] | inhibits B. glumae; also recorded: significantly reduced the growth of B. glumae | 97% | 97% | 100 µg/mL | 1.5 logs | – | – | showed reduction of symptoms | – | –
6 | O=[N+]([O-])c1c(Cl)cccc1-c1c[nH]cc1Cl [pyrrolnitrin] | – | – | 25% | 1000 µg/mL | – | – | – | – | inhibits B. glumae | did not have any effect
7 | orfamide B | – | – | – | – | – | did not reduce the growth of B. glumae | – | – | – | –
8 | CN1[C@@H]([C@H]2CSC(c3ccccc3O)=N2)SC[C@H]1C(=O)O [pyochelin] | – | – | 40% | 1000 µg/mL | No changes in B. glumae populations | – | – | showed reduction of symptoms | inhibits B. glumae | did not have any effect
